This test has as its target T1, AChE enzyme from electric eel (EeAChE) (type VI) (Electrophorus electricus, UniProt O42275).
T1 construct: purchased Sigma-Aldrich, Steinheim, Germany type VI (catalogue number not given)
As to the kind of experiment: In vitro AChE inhibition assay (modified Ellman method). It is filed as biochemical. How it is done:
AChE enzyme from electric eel (EeAChE) (type VI), acetylthiocholine iodide, Ellman reagent, 5,5-dithiobis-2-nitro benzoic acid (DTNB), and Eserine (standard inhibitor) were purchased from Sigma-Aldrich, Steinheim, Germany. AChE inhibitory activity was performed in vitro using a modified spectrophotometric method developed by Ellman et al.. Experiments were carried out in a 96-well microtiter plate using a Multiskan spectrum spectrophotometer. The test compounds were prepared immediately before the experiment as fresh samples. Each compound was dissolved in 200 μL methanol, 150 μL […] phosphate buffer (pH 8.0), and 20 μL AChE enzyme. An aliquot of 10 μL of resulting test solutions was mixed and incubated at 25 °C for 10 min. The sample with 10 μL of solvent (methanol) rather than the test compound served as a negative control. After 10 min, 10 μL DTNB was added to the wells and the reaction was initiated with the addition of 10 μL acetylthiocholine (ATCh). All of the samples were prepared and analyzed in triplicate. The hydrolysis of ATCh was monitored at wavelength 412 nm by measuring the formation of a yellow anion of 5-thio-2-nitrobenzoate due to the reaction of DTNB with thiocholine. The initial rate was measured as the change in optical density/min (OD/min). As the extinct coefficient of the yellow anion is known, the following equation was used to calculate the rate of the enzymatic reaction: (1) Rate (moles/L/min) = change in absorbance/εTNB where εTNB is the molar extinction coefficient value of 5-thio-2-nitrobenzoate = 13.6 × 10^3 at 412 nm.
The following formula was used to calculate the % enzyme inhibition by test compounds:(2) % inhibition = 1−Rate of change in the absorbance of test/Rate of change in the absorbance of cotrol × 100
Chalcone solutions were serially diluted to different concentrations (0.0977–50 µM) and were analyzed in triplicate using the above-described modified Ellman’s method. Finally, IC50 values were determined and statistically analyzed using EZ-Fit Enzyme Kinetic Program (Perrella Scientific Inc., Amherst, MA, USA).
On the technique in general: Ellman's reagent forms a yellow product with free thiols.

The mark [1] stands for this setting: EeAChE, Ellman method, triplicate, 25 °C, pH 8.0, read-out: IC50 (AChE inhibitory activity).

SMILES strings stand for the structures. Like-named read-outs stand apart in the source and are kept apart here.

The values below come from PMC9145706 (Molecules, 2022).

As a reminder, the IC50 is the concentration needed to halve the response being measured.

T1 sequence (O42275 24-633): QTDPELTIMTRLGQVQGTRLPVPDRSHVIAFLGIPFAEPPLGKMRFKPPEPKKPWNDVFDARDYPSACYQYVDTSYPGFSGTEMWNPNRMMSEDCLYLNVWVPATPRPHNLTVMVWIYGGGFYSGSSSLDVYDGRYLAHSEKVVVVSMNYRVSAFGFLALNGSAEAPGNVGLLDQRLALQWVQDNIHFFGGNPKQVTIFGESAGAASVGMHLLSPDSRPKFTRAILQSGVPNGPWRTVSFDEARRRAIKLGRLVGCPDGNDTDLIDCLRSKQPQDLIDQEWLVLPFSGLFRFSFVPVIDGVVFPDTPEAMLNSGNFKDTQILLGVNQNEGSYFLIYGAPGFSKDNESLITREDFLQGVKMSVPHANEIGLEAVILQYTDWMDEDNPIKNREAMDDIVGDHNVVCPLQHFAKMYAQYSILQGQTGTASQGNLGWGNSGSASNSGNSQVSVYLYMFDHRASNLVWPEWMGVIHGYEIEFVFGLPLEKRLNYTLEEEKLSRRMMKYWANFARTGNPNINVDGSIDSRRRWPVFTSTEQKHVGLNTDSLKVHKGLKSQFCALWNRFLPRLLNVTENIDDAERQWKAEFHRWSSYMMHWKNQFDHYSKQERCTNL

As to `O=C(/C=C/c1ccccc1)c1ccc(Cl)cc1` [Compound C1, (E)-1-(4-chlorophenyl)-3-phenylprop-2-en-1-one], the IC50 under setting [1] was determined as 22 ± 2.8 µM.
With `CCc1ccc(C(=O)/C=C/c2ccc([N+](=O)[O-])cc2)cc1` [Compound C2, (E)-1-(4-ethylphenyl)-3-(4-nitrophenyl)prop-2-en-1-one], the IC50 under setting [1] was found to be 31.2 ± 1.8 µM.
Consider `COc1ccc(/C=C/C(=O)c2ccc(Cl)cc2)cc1` [Compound C3, (E)-1-(4-chlorophenyl)-3-(4-methoxyphenyl)prop-2-en-1-one], for which it took 32 ± 2.4 µM to reach half-maximal inhibition (IC50).
On to `O=C(/C=C/c1ccc([N+](=O)[O-])cc1)c1ccc(Br)cc1` [Compound C5, (E)-1-(4-bromophenyl)-3-(4-nitrophenyl)prop-2-en-1-one], for which the IC50 under setting [1] was 37.6 ± 0.75 µM.
